Source: article PMC3758898 (Bioorganic & medicinal chemistry, 2013)

What was measured:
[1] = target: T1, UPPS (Undecaprenyl Pyrophosphate Synthase) (Bacteroides fragilis, UniProt Q5LI17); experiment: RP-HPLC with fluorescence detection, TLC, ESI-MS, 1H-NMR of product; type: biochemical; settings: IPP 0.2 mM, MgCl2 0.5 mM, KCl 5 mM, 0.1% DDM, HEPES pH 7.4, 37 °C
T1 sequence (Q5LI17 1-244): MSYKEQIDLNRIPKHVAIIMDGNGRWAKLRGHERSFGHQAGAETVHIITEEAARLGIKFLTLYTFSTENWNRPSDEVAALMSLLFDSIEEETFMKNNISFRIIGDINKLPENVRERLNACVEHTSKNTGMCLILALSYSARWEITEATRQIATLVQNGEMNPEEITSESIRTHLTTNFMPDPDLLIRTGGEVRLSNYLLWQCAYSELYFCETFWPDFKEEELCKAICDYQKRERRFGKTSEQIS

[2] = target: T1, UPPS (Undecaprenyl Pyrophosphate Synthase); experiment: RP-HPLC with fluorescence detection; type: biochemical; settings: IPP 0.2 mM, MgCl2 0.5 mM, KCl 5 mM, 0.1% DDM, HEPES pH 7.4, 37 °C, 1 h

Row | SMILES | RP-HPLC with fluorescence detection, TLC, ESI-MS, 1H-NMR of product [1] | RP-HPLC with fluorescence detection [2]
1 | C/C(=C\COP(=O)(O)OP(=O)(O)O)CC/C=C(\C)CNc1ccccc1C(N)=O [6b, (6E)-8-(2-amideaniline)-3,7-dimethyl-2,6-octadiene diphosphate] | these results confirmed the formation of the long chain isoprenoid with 2AB-G-PP as the UPPS substrate | 
2 | C/C(=C/COP(=O)(O)OP(=O)(O)O)CC/C=C(\C)CNc1ccccc1C(N)=O [6a, (6Z)-8-(2-amideaniline)-3,7-dimethyl-2,6-octadiene diphosphate] |  | we observed identical activity with 2AB-N-PP
